Tests used:
Format in all cases: in vivo
[1] = system: Broadleaf Signalgrass; assay: Selective postemergence, track sprayer
In short: (§1)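 Potted grasses about 10 cm tall were treated postemergence with a track sprayer delivering the chosen dosages in 280.6 L/hectare of water containing 0.1% Tween-20. Pots sprayed without toxicant served as controls. Growth was rated two weeks after treatment on a 0–100 scale (0 no effect, 100 complete kill).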

[2] = system: Goosegrass; assay: Selective postemergence, track sprayer
In short: as §1

[3] = system: Blackgrass; assay: Selective postemergence, track sprayer
In short: as §1

[4] = system: Red Top; assay: Selective postemergence, track sprayer
In short: as §1

[5] = system: Yellow Foxtail; assay: Selective postemergence, track sprayer
In short: as §1

[6] = system: Annual Bluegrass; assay: Selective postemergence, track sprayer
In short: as §1

[7] = system: Sprangletop; assay: Selective postemergence, track sprayer
In short: as §1

[8] = system: Fall Panicum; assay: Selective postemergence, track sprayer
In short: as §1

[9] = system: Yellow Foxtail; assay: Preemergent activity; conditions: Setaria, pre-emergence, read-out: Preemergence Control; for pest or weed control at 70 g/ha: 0.07 kgs/hectare; for pest or weed control at 280 g/ha: 0.28 kgs/hectare
In short: (§2)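 Test compound was applied in acetone mixed with an equal volume of water containing 0.1% Tween-20, sprayed preemergence onto seed beds of sandy loam soil sown with the test species. Beds were kept under identical temperature and light. A solvent-only spray served as control.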

[10] = system: Johnson Grass; assay: Preemergent activity; conditions: Sorghum halepense, pre-emergence, read-out: Preemergence Control; for pest or weed control at 70 g/ha: 0.07 kgs/hectare; for pest or weed control at 280 g/ha: 0.28 kgs/hectare
In short: as §2

[11] = system: Wheat; assay: Preemergent activity; conditions: Triticum aestivum, pre-emergence, read-out: Preemergence Control; for plant injury at 70 g/ha: 0.07 kgs/hectare; for plant injury at 280 g/ha: 0.28 kgs/hectare
In short: as §2

COC(=O)[C@@H](C)Oc1ccc(Oc2ccc(Br)cc2F)cc1 [4-Bromo-(R-Enantiomer), R enantiomer of 2-[4-(4-bromo-2-fluorophenoxy)phenoxy]propionic acid methyl ester]
Percent Control ([1]; 0.00055 kgs/hectare): 50%
Percent Control ([1]; 0.0011 kgs/hectare): 50%
Percent Control ([1]; 0.0023 kgs/hectare): 50%
Percent Control ([1]; 0.0045 kgs/hectare): 90%
Percent Control ([1]; 0.009 kgs/hectare): 95%
Percent Control ([1]; 0.018 kgs/hectare): 100%
Percent Control ([1]; 0.035 kgs/hectare): 100%
Percent Control ([1]; 0.07 kgs/hectare): 100%
Percent Control ([1]; 0.14 kgs/hectare): 100%
Percent Control ([1]; 0.28 kgs/hectare): 100%
Percent Control ([2]; 0.00055 kgs/hectare): 0%
Percent Control ([2]; 0.0011 kgs/hectare): 0%
Percent Control ([2]; 0.0023 kgs/hectare): 0%
Percent Control ([2]; 0.0045 kgs/hectare): 20%
Percent Control ([2]; 0.009 kgs/hectare): 70%
Percent Control ([2]; 0.018 kgs/hectare): 50%
Percent Control ([2]; 0.035 kgs/hectare): 70%
Percent Control ([2]; 0.07 kgs/hectare): 70%
Percent Control ([2]; 0.14 kgs/hectare): 80%
Percent Control ([2]; 0.28 kgs/hectare): 80%
Percent Control ([3]; 0.00055 kgs/hectare): 50%
Percent Control ([3]; 0.0011 kgs/hectare): 60%
Percent Control ([3]; 0.0023 kgs/hectare): 60%
Percent Control ([3]; 0.0045 kgs/hectare): 60%
Percent Control ([3]; 0.009 kgs/hectare): 80%
Percent Control ([3]; 0.018 kgs/hectare): 100%
Percent Control ([3]; 0.035 kgs/hectare): 100%
Percent Control ([3]; 0.07 kgs/hectare): 100%
Percent Control ([3]; 0.14 kgs/hectare): 100%
Percent Control ([3]; 0.28 kgs/hectare): 100%
Percent Control ([4]; 0.00055 kgs/hectare): 0%
Percent Control ([4]; 0.0011 kgs/hectare): 0%
Percent Control ([4]; 0.0023 kgs/hectare): 0%
Percent Control ([4]; 0.0045 kgs/hectare): 0%
Percent Control ([4]; 0.009 kgs/hectare): 0%
Percent Control ([4]; 0.018 kgs/hectare): 0%
Percent Control ([4]; 0.035 kgs/hectare): 30%
Percent Control ([4]; 0.07 kgs/hectare): 90%
Percent Control ([4]; 0.14 kgs/hectare): 90%
Percent Control ([4]; 0.28 kgs/hectare): 90%
Percent Control ([5]; 0.00055 kgs/hectare): 0%
Percent Control ([5]; 0.0011 kgs/hectare): 0%
Percent Control ([5]; 0.0023 kgs/hectare): 20%
Percent Control ([5]; 0.0045 kgs/hectare): 20%
Percent Control ([5]; 0.009 kgs/hectare): 50%
Percent Control ([5]; 0.018 kgs/hectare): 90%
Percent Control ([5]; 0.035 kgs/hectare): 100%
Percent Control ([5]; 0.07 kgs/hectare): 100%
Percent Control ([5]; 0.14 kgs/hectare): 100%
Percent Control ([5]; 0.28 kgs/hectare): 100%
Percent Control ([6]; 0.00055 kgs/hectare): 0%
Percent Control ([6]; 0.0011 kgs/hectare): 0%
Percent Control ([6]; 0.0023 kgs/hectare): 0%
Percent Control ([6]; 0.0045 kgs/hectare): 0%
Percent Control ([6]; 0.009 kgs/hectare): 0%
Percent Control ([6]; 0.018 kgs/hectare): 0%
Percent Control ([6]; 0.035 kgs/hectare): 0%
Percent Control ([6]; 0.07 kgs/hectare): 0%
Percent Control ([6]; 0.14 kgs/hectare): 0%
Percent Control ([6]; 0.28 kgs/hectare): 0%
Percent Control ([7]; 0.00055 kgs/hectare): 0%
Percent Control ([7]; 0.0011 kgs/hectare): 20%
Percent Control ([7]; 0.0023 kgs/hectare): 100%
Percent Control ([7]; 0.0045 kgs/hectare): 100%
Percent Control ([7]; 0.009 kgs/hectare): 100%
Percent Control ([7]; 0.018 kgs/hectare): 100%
Percent Control ([7]; 0.035 kgs/hectare): 100%
Percent Control ([7]; 0.07 kgs/hectare): 100%
Percent Control ([7]; 0.14 kgs/hectare): 100%
Percent Control ([7]; 0.28 kgs/hectare): 100%
Percent Control ([8]; 0.00055 kgs/hectare): 20%
Percent Control ([8]; 0.0011 kgs/hectare): 30%
Percent Control ([8]; 0.0023 kgs/hectare): 50%
Percent Control ([8]; 0.0045 kgs/hectare): 80%
Percent Control ([8]; 0.009 kgs/hectare): 80%
Percent Control ([8]; 0.018 kgs/hectare): 100%
Percent Control ([8]; 0.035 kgs/hectare): 100%
Percent Control ([8]; 0.07 kgs/hectare): 100%
Percent Control ([8]; 0.14 kgs/hectare): 100%
Percent Control ([8]; 0.28 kgs/hectare): 100%

COC(=O)C(C)Oc1ccc(Oc2ccc(C(F)(F)F)cc2F)cc1 (centres unmarked) [2-[4-(2-fluoro-4-trifluoromethylphenoxy)phenoxy]propionic acid methyl ester]
pest or weed control at 18 g/ha ([9]; 0.018 kgs/hectare): 20%
pest or weed control at 35 g/ha ([9]; 0.035 kgs/hectare): 70%
pest or weed control at 70 g/ha [9]: 100%
pest or weed control at 114 g/ha ([9]; 0.114 kgs/hectare): 100%
pest or weed control at 280 g/ha [9]: 100%
pest or weed control at 18 g/ha ([10]; 0.018 kgs/hectare): 20%
pest or weed control at 35 g/ha ([10]; 0.035 kgs/hectare): 60%
pest or weed control at 70 g/ha [10]: 90%
pest or weed control at 114 g/ha ([10]; 0.114 kgs/hectare): 100%
pest or weed control at 280 g/ha [10]: 100%
plant injury at 18 g/ha ([11]; 0.018 kgs/hectare): 0%
plant injury at 35 g/ha ([11]; 0.035 kgs/hectare): 20%
plant injury at 70 g/ha [11]: 90%
plant injury at 114 g/ha ([11]; 0.114 kgs/hectare): 100%
plant injury at 280 g/ha [11]: 100%

COC(=O)C(C)Oc1ccc(Oc2ccc(Cl)cc2F)cc1 (racemic) [Example 4-Chloro-, 2-[4-(4-chloro-2-fluorophenoxy)phenoxy]propionic acid methyl ester]
pest or weed control at 70 g/ha [9]: 0%
pest or weed control at 140 g/ha ([9]; 0.14 kgs/hectare): 10%
pest or weed control at 280 g/ha [9]: 90%
pest or weed control at 560 g/ha ([9]; 0.56 kgs/hectare): 95%
pest or weed control at 1120 g/ha ([9]; 1.12 kgs/hectare): 95%
pest or weed control at 70 g/ha [10]: 0%
pest or weed control at 140 g/ha ([10]; 0.14 kgs/hectare): 0%
pest or weed control at 280 g/ha [10]: 0%
pest or weed control at 560 g/ha ([10]; 0.56 kgs/hectare): 60%
pest or weed control at 1120 g/ha ([10]; 1.12 kgs/hectare): 80%
plant injury at 70 g/ha [11]: 0%
plant injury at 140 g/ha ([11]; 0.14 kgs/hectare): 0%
plant injury at 280 g/ha [11]: 0%
plant injury at 560 g/ha ([11]; 0.56 kgs/hectare): 0%
plant injury at 1120 g/ha ([11]; 1.12 kgs/hectare): 0%

Reference: patent US4725683A, “Fluorophenoxyphenoxypropionates and derivatives thereof” (The Dow Chemical Company, priority 1985, dated 1988)
